Data on twelve compounds can be found in PubChem BioAssay (NCI).

Usually GI50 stands for the concentration giving 50% growth inhibition. Broadly, the TGI is the concentration giving total growth inhibition. A low value points to greater sensitivity of the cells.

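Compound exposure: 48 hours, 5 concentrations, 96-well plates. GI50 marks 50% less growth. TGI: concentration producing complete growth inhibition.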

Common to all, as to experiment: DTP human tumour cell line panel, 48 h
The test system of assay [1] is 786-0 renal.
The test system of assay [2] is A498 renal.
In assay [3] the test system is BT-549 breast.
The subject of assay [4] is COLO 205 colon.
For assay [5], the system named is DU-145 prostate.
The subject of assay [6] is MCF7 breast.
Assay [7] concerns SF-268 CNS.
For assay [8], the system named is SNB-19 CNS.
Assay [9] deals with DMS 273 small cell lung.
The test system of assay [10] is KM20L2 colon.
For assay [11], the system named is LXFL 529 NSCLC.
For assay [12], the system named is DLD-1 colon.

On to `N#CC1=C(N)Oc2c(sc3c(Br)cccc23)C1c1ccc(Br)cc1` (stereo unspecified), for which the GI50 in [1] is 0.776 µM; in [2], 0.633 µM; in [3], 1.32 µM; in [4], 0.406 µM; in assay [5], 0.571 µM; in [6], 0.382 µM. Further, the GI50 is 1.15 µM in [7] and 0.707 µM in [8]. For the same compound, the total growth inhibition concentration (TGI) in assay [1] stood at 2.96 µM; in assay [2], 9.56 µM; in assay [3] it was 12.7 µM; in assay [4] it was 1.88 µM; in assay [5], 2.82 µM; in assay [6], 12.4 µM. Further, the results for the total growth inhibition concentration (TGI) in assay [7] and in [8] were 10 µM and 12.8 µM, respectively.
For `OC(CNCC1CCCO1)Cn1c2ccc(Cl)cc2c2cc(Cl)ccc21` (stereo unspecified), the GI50 was 1.59 µM in assay [1]; 1.06 µM in [2]; 5.98 µM in assay [3]; 1.92 µM in assay [4]; 1.83 µM in assay [5]; 1.72 µM in [6]. Also, the values for the GI50 in [7] and in [8] were 1.87 µM and 1.88 µM, respectively. For the same compound, the total growth inhibition concentration (TGI) was determined as 3.08 µM in assay [1]; 8.83 µM in assay [2]; 27.1 µM in [3]; 3.61 µM in assay [4]; 3.37 µM in assay [5]; 3.25 µM in assay [6]. The TGI in [7] stood at 3.77 µM; in assay [8], 3.96 µM.
With `CCN(CC)CCn1c2ccccc2c(=O)c2c(O)ccc(O)c21`, the TGI is 53.8 µM in assay [1]; more than 100 µM in [2]; 44.7 µM in assay [3]; 45.1 µM in assay [4]; more than 100 µM in assay [9]; more than 100 µM in assay [5]. Also, the TGI in assay [10] was more than 100 µM; in [11] it was 41.7 µM; in [6], 40.1 µM; in assay [7], 52.7 µM; in assay [8], more than 74.8 µM.
In the case of `C[N+]1(C)C/C(=C\c2ccccc2)C(=O)/C(=C/c2ccccc2)C1`, the total growth inhibition concentration (TGI) in assay [1], in assay [2], in [4], in assay [12], in assay [9] and in [10] was more than 100 µM throughout. For the same compound, the concentration for total growth inhibition (TGI) in assay [11] and in assay [7] was more than 100 µM throughout.
For `Cc1[nH]c(=O)n2c(C)nnc2c1C(=O)Nc1cc(Cl)cc(Cl)c1`, the TGI is more than 100 µM in [1]; 79.4 µM in assay [4]; more than 100 µM in assay [12]; more than 100 µM in [11]; more than 100 µM in assay [7].
For the compound `CC(C)COCC(CN(Cc1ccccc1)c1ccccc1)N1CCCC1` (stereo unspecified), the GI50 in [1] is 3.46 µM; in assay [2] it was 1.03 µM; in [3] it was 5.75 µM; in assay [4] it was 1.53 µM; in [5], 3.76 µM; in assay [6] it was 2.06 µM. In addition, the GI50 in [7] was 4.01 µM; in [8], 3.07 µM. For the same compound, the TGI in assay [1] is 12.8 µM; in [2], 10.4 µM; in assay [3], 19 µM; in assay [4] it was 3.52 µM; in [5], 13.6 µM; in [6], 4.78 µM. The concentration for total growth inhibition (TGI) in assay [7] was 16.1 µM; in [8], 12.2 µM.
Turning to `CN1C(=O)C(CC(=O)O)NC1=S` (stereo unspecified), the TGI in assay [1], in [2], in assay [3], in assay [4], in assay [5] and in assay [6] was more than 100 µM in each case. Besides, the total growth inhibition concentration (TGI) in [7] and in [8] was more than 100 µM throughout.
With `COc1cccc2c1C(=O)c1c(O)c3c(c(O)c1C2=O)C[C@@](O)(C(=O)CO)C[C@@H]3O[C@H]1C[C@H](N)[C@@H](O)[C@H](C)O1`, the concentration for 50% growth inhibition (GI50) in assay [1] was 0.123 µM; in assay [2] it was 0.134 µM; in assay [3] it was 0.128 µM; in [4] it was 0.313 µM; in assay [5], 0.159 µM; in assay [6], 0.0247 µM. The values for the GI50 in [7] and in assay [8] were 0.196 µM and 0.127 µM, respectively. For the same compound, the concentration for total growth inhibition (TGI) in assay [1] was found to be 1.86 µM; in assay [2], 1.06 µM; in assay [3] it was 0.474 µM; in [4], 1.23 µM; in assay [5] it was 5.8 µM; in [6] it was 14 µM. The figures for the total growth inhibition concentration (TGI) in assay [7] and in assay [8] were 2.08 µM and 21.7 µM, respectively.
As for `C=C1C(=O)OC2C=C(CCC(C)=O)C(C)C(OC(C)=O)CC12` (stereo unspecified), the TGI turned out to be 21.4 µM in assay [1]; 30.1 µM in assay [2]; 16.4 µM in [10]; 1.67 µM in assay [11]; 32.8 µM in assay [7]; 37.2 µM in assay [8].
`Fc1ccccc1C1SCc2nc3ccccc3n21` (stereo unspecified): the TGI in assay [1], in assay [2], in [4], in assay [12], in assay [9] and in [11] was more than 100 µM in each case. The TGI in assay [7] and in assay [8] was more than 100 µM throughout.
For `CNCCNc1c2c(c(NCCNC)c3[nH]ccc13)C(=O)c1ccccc1C2=O`, the GI50 in assay [1] is 0.0646 µM; in assay [2], 2.14 µM; in assay [3], 4 µM; in [4], 3.32 µM; in [5], 0.526 µM; in assay [6] it was 0.154 µM. For the same compound, the 50% growth inhibitory concentration (GI50) in [7] was 0.222 µM; in assay [8], 4.58 µM. The TGI in assay [1] worked out at 0.821 µM; in [2], 4.27 µM; in assay [3] it was 8.21 µM; in [5] it was 1.31 µM; in assay [6], 1.19 µM; in assay [7], 0.876 µM. In addition, the concentration for total growth inhibition (TGI) in assay [8] amounted to 11.5 µM.
Consider `Cc1cc(=O)[nH]c2cc3c(c4c(n3Cc3ccc(Cl)cc3Cl)CC(C)(C)CC4=O)c(O)c12`, for which the 50% growth inhibitory concentration (GI50) was 0.0145 µM in assay [1]; more than 100 µM in assay [2]; 19.6 µM in [3]; more than 100 µM in assay [4]; 46.2 µM in assay [5]; more than 100 µM in assay [6]. Also, the GI50 in assay [7] is 76.1 µM; in assay [8] it was 55.8 µM. In addition, the TGI in [1] is 0.134 µM; in assay [2], more than 100 µM; in assay [3] it was 64.2 µM; in assay [4], more than 100 µM; in assay [5] it was more than 100 µM; in assay [6], more than 100 µM. Besides, the TGI in assay [7] and in assay [8] was more than 100 µM in each case.
